Source: PubChem BioAssay (NCI)
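How tested: cells in 96-well plates exposed to compound for 48 hours at five concentrations. TGI is the concentration that stops growth completely.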

System: RXF-631 renal
Experiment: NCI anticancer screen, dose series, 48 h

`COc1ccc(C(c2ccccc2)(c2ccc(OC)cc2)N2C(=O)NC3C(CCCCC(=O)NCCCCCCOP(OCCC#N)N(C(C)C)C(C)C)SCC32)cc1` (stereo unspecified) was tested, and the TGI was 17.7 µM.
